Measurements from the NIST ThermoML archive (doi:10.1016/j.jct.2011.12.037).

What was measured:
[1] = for viscosity / mass density: 101.33 kPa, Liquid; for viscosity: Falling or rolling sphere viscometry; for mass density: Vibrating tube method; for Normal melting temperature: visual observation
[2] = Molar enthalpy of transition or fusion; conditions: Crystal; DSC

CCCCCCCC[n+]1cccc2ccccc21.O=S(=O)([N-]S(=O)(=O)C(F)(F)F)C(F)(F)F [1-octylquinolinium bis[(trifluoromethyl)sulfonyl]imide]
[1]
Conditions	Normal melting temperature [°C]	mass density [kg/m3]	viscosity [mPa·s]
323.15 K	–	1317.99	98.46
328.15 K	–	1313.82	77.27
333.15 K	–	1309.64	61.75
338.15 K	–	1305.46	50.06
343.15 K	–	1301.29	41.15
348.15 K	–	1297.14	34.22
353.15 K	–	1292.99	28.87
358.15 K	–	1288.85	24.7
363.15 K	–	1284.71	21.19
Crystal	48.2	–	–

[1], DTA
Conditions	Glass transition temperature [°C]	Triple point temperature [K]
Crystal	–	321.5
Glass	-52.3	–

Conditions	Molar enthalpy of transition or fusion [kcal/mol]
[2]	15

c1ccccc1 [benzene]
Conditions	Normal melting temperature [°C]
[1], Crystal	5.5
